Among the data in patent US7045545B1, “Aminoalkylbenzofurans as serotonin (5-HT(2c)) agonists” (Eli Lilly and Company, priority 1999, dated 2006) are melting point values, retold here.

In turn, `CC(N)Cc1c(F)ccc2ccoc12.O=C(O)C(=O)O` (centres unmarked) showed a melting point of 200 to 202 °C.

For the molecule `CC(N)Cc1cc([N+](=O)[O-])cc2ccoc12.Cl` (centres unmarked), the melting point is 216 to 217 °C (dec.). In the case of `Cc1coc2c(CC(C)N)cc(F)cc12.O=C(O)C(=O)O` (centres unmarked) it was 201 to 202 °C. In the case of `C[C@H](N)Cc1cc(F)cc2cc(Br)oc12.Cl` it was 202 to 205 °C; in that of `CC(N)Cc1ccc(F)c2ccoc12.O=C(O)C(=O)O` (centres unmarked), 172 to 174 °C.
